Data from patent US11135234B2, “Effective aminoglycoside antibiotic for multidrug-resistant bacteria” (MICROBIAL CHEMISTRY RESEARCH FOUNDATION, priority 2015, dated 2021).
Converted amounts (≈) assume the structure as drawn.

How the values were obtained:
P. aeruginosa MSC01035 = assay: MIC, agar plate dilution method, P. aeruginosa MSC01035; assay type: cell-based, Pseudomonas aeruginosa; details: P. aeruginosa MSC01035, ABK-resistant; for MIC: Pseudomonas aeruginosa, read-out: minimal inhibitory concentration (MIC)
Procedure, shortened: (§1)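 Japan Society of Chemotherapy agar dilution protocol used. MIC reported in μg/mL.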

S. aureus RN4220/pMS520 = assay: MIC, agar plate dilution method, S. aureus RN4220/pMS520; assay type: cell-based, Staphylococcus aureus; details: for MIC: Staphylococcus aureus, MRSA, read-out: minimal inhibitory concentration (MIC), S. aureus RN4220/pMS520, MRSA
Procedure, shortened: as §1

P. aeruginosa MSC17707 = assay: MIC, agar plate dilution method, P. aeruginosa MSC17707; assay type: cell-based, Pseudomonas aeruginosa; details: for MIC: Pseudomonas aeruginosa, MSC17707, P. aeruginosa MSC17707, AMK-resistant, read-out: minimal inhibitory concentration (MIC)
Procedure, shortened: as §1

S. marcescens GN6944 = assay: MIC, agar plate dilution method, S. marcescens GN6944; assay type: cell-based, Serratia marcescens; details: S. marcescens GN6944, GM-resistant; for MIC: Serratia marcescens, read-out: minimal inhibitory concentration (MIC)
Procedure, shortened: as §1

P. aeruginosa PAO1/GN315 = assay: MIC, agar plate dilution method, P. aeruginosa PAO1/GN315; assay type: cell-based, Pseudomonas aeruginosa; details: for MIC: Pseudomonas aeruginosa, read-out: minimal inhibitory concentration (MIC), P. aeruginosa PAO1/GN315, AMK-resistant
Procedure, shortened: as §1

[1] = system: A. baumannii ATCC BAA-1710; assay: MIC, agar plate dilution method, A. baumannii ATCC BAA-1710; assay type: cell-based, Acinetobacter baumannii; details: for MIC: Acinetobacter baumannii, ATCCBAA1710, A. baumannii ATCC BAA-1710, MDRA, read-out: minimal inhibitory concentration (MIC)
Procedure, shortened: as §1

S. marcescens TH-0447 = assay: MIC, agar plate dilution method, S. marcescens TH-0447; assay type: cell-based, Serratia marcescens; details: for MIC: Serratia marcescens, TH0447, S. marcescens TH-0447, AMK-resistant, read-out: minimal inhibitory concentration (MIC)
Procedure, shortened: as §1

E. faecium ATCC19434 = assay: MIC, agar plate dilution method, E. faecium ATCC19434; assay type: cell-based, Enterococcus faecium; details: for MIC: Enterococcus faecium, ATCC19434, E. faecium ATCC19434, read-out: minimal inhibitory concentration (MIC)
Procedure, shortened: as §1

P. aeruginosa PAO1 = assay: MIC, agar plate dilution method, P. aeruginosa PAO1; assay type: cell-based, Pseudomonas aeruginosa; details: for MIC: Pseudomonas aeruginosa, PAO1, P. aeruginosa PAO1, Sensitive bacterium, read-out: minimal inhibitory concentration (MIC)
Procedure, shortened: as §1

S. aureus RN4220 = assay: MIC, agar plate dilution method, S. aureus RN4220; assay type: cell-based, Staphylococcus aureus; details: for MIC: Staphylococcus aureus, RN4220, S. aureus RN4220, Sensitive bacterium, read-out: minimal inhibitory concentration (MIC)
Procedure, shortened: as §1

[2] = system: K. pneumoniae ATCC BAA-2146; assay: MIC, agar plate dilution method, K. pneumoniae ATCC BAA-2146; assay type: cell-based, Klebsiella pneumoniae; details: for MIC: Klebsiella pneumoniae, ATCCBAA2146, K. pneumoniae ATCC BAA-2146, NDM-producing strain, read-out: minimal inhibitory concentration (MIC)
Procedure, shortened: as §1

S. aureus MF490 = assay: MIC, agar plate dilution method, S. aureus MF490; assay type: cell-based, Staphylococcus aureus; details: for MIC: Staphylococcus aureus, MRSA, read-out: minimal inhibitory concentration (MIC)
Procedure, shortened: as §1

E. coli JM109/pMW218 = assay: MIC, agar plate dilution method, E. coli JM109/pMW218; assay type: cell-based, Escherichia coli; details: for MIC: Escherichia coli, JM109/PMW218, E. coli JM109/pMW218, Sensitive bacterium, read-out: minimal inhibitory concentration (MIC)
Procedure, shortened: as §1

[3] = system: K. pneumoniae ATCC BAA-1705; assay: MIC, agar plate dilution method, K. pneumoniae ATCC BAA-1705; assay type: cell-based, Klebsiella pneumoniae; details: for MIC: Klebsiella pneumoniae, ATCCBAA1705, K. pneumoniae ATCC BAA-1705, KPC-producing strain, read-out: minimal inhibitory concentration (MIC)
Procedure, shortened: as §1

SMILES	MIC (P. aeruginosa MSC01035)	MIC (S. aureus RN4220/pMS520)	MIC (P. aeruginosa MSC17707)	MIC (S. marcescens GN6944)	MIC (P. aeruginosa PAO1/GN315)	MIC [1]	MIC (S. marcescens TH-0447)	MIC (E. faecium ATCC19434)	MIC (P. aeruginosa PAO1)	MIC (S. aureus RN4220)	MIC [2]	MIC (S. aureus MF490)	MIC (E. coli JM109/pMW218)	MIC [3]	other results
CNC1C(O[C@H]2OC(CO)[C@@H](NC(=N)N)[C@H](O)C2O)O[C@H]2CC(N)[C@@H](O[C@@H]3C(N)C[C@@H](N)C(O)[C@H]3F)OC2C1O (stereo partly drawn) [Compound S1-k, 4″-deamino-5-deoxy-5-epi-5-fluoro-4″-guanidinoapramycin]	8 µg/mL (≈ 13.7 µM)	1 µg/mL (≈ 1.71 µM)	8 µg/mL (≈ 13.7 µM)	4 µg/mL (≈ 6.85 µM)	8 µg/mL (≈ 13.7 µM)	8 µg/mL (≈ 13.7 µM)	8 µg/mL (≈ 13.7 µM)	16 µg/mL (≈ 27.4 µM)	8 µg/mL (≈ 13.7 µM)	1 µg/mL (≈ 1.71 µM)	1 µg/mL (≈ 1.71 µM)	4 µg/mL (≈ 6.85 µM)	0.5 µg/mL (≈ 0.857 µM)	1 µg/mL (≈ 1.71 µM)	–
CNC1C(CO)OC(OC2OC3CC(N)C(OC4C(N)CC(N)CC4O)OC3C(O)C2NC)C(O)C1O (stereo not drawn) [Compound S1-l, 6-deoxy-5-epi-4″-N-methylapramycin]	–	–	–	–	–	–	–	–	–	–	–	–	–	–	minimal inhibitory concentration (MIC) (P. aeruginosa MSC01035): 4 µg/mL (≈ 7.44 µM); minimal inhibitory concentration (MIC) (S. aureus RN4220/pMS520; S. aureus RN4220/pMS520, MRSA): 1 µg/mL (≈ 1.86 µM); minimal inhibitory concentration (MIC) (P. aeruginosa MSC17707; P. aeruginosa MSC17707, AMK-resistant): 4 µg/mL (≈ 7.44 µM); minimal inhibitory concentration (MIC) (S. marcescens GN6944): 2 µg/mL (≈ 3.72 µM); minimal inhibitory concentration (MIC) (P. aeruginosa PAO1/GN315; P. aeruginosa PAO1/GN315, AMK-resistant): 4 µg/mL (≈ 7.44 µM); minimal inhibitory concentration (MIC) ([1]; A. baumannii ATCC BAA-1710, MDRA): 4 µg/mL (≈ 7.44 µM); minimal inhibitory concentration (MIC) (S. marcescens TH-0447; S. marcescens TH-0447, AMK-resistant): 4 µg/mL (≈ 7.44 µM); minimal inhibitory concentration (MIC) (E. faecium ATCC19434; E. faecium ATCC19434): 16 µg/mL (≈ 29.8 µM); minimal inhibitory concentration (MIC) (P. aeruginosa PAO1; P. aeruginosa PAO1, Sensitive bacterium): 4 µg/mL (≈ 7.44 µM); minimal inhibitory concentration (MIC) (S. aureus RN4220; S. aureus RN4220, Sensitive bacterium): 2 µg/mL (≈ 3.72 µM); minimal inhibitory concentration (MIC) ([2]; K. pneumoniae ATCC BAA-2146, NDM-producing strain): 0.5 µg/mL (≈ 0.93 µM); minimal inhibitory concentration (MIC) (S. aureus MF490; S. aureus MF490, MRSA): 8 µg/mL (≈ 14.9 µM); minimal inhibitory concentration (MIC) (E. coli JM109/pMW218; E. coli JM109/pMW218, Sensitive bacterium): 0.5 µg/mL (≈ 0.93 µM); minimal inhibitory concentration (MIC) ([3]; K. pneumoniae ATCC BAA-1705, KPC-producing strain): 1 µg/mL (≈ 1.86 µM)
CNC1C(O[C@H]2OC(CO)[C@@H](NCCN)[C@H](O)C2O)O[C@H]2CC(N)[C@@H](O[C@@H]3C(N)C[C@@H](N)C[C@H]3O)OC2C1O (stereo partly drawn) [Compound S1-m, 6-deoxy-4″-N-(2-aminoethyl)-5-epiapramycin]	8 µg/mL (≈ 14.1 µM)	2 µg/mL (≈ 3.53 µM)	8 µg/mL (≈ 14.1 µM)	8 µg/mL (≈ 14.1 µM)	8 µg/mL (≈ 14.1 µM)	4 µg/mL (≈ 7.06 µM)	4 µg/mL (≈ 7.06 µM)	16 µg/mL (≈ 28.2 µM)	4 µg/mL (≈ 7.06 µM)	2 µg/mL (≈ 3.53 µM)	1 µg/mL (≈ 1.76 µM)	8 µg/mL (≈ 14.1 µM)	1 µg/mL (≈ 1.76 µM)	2 µg/mL (≈ 3.53 µM)	–
CNC1C(O[C@H]2OC(CO)[C@@H](NCCCN)[C@H](O)C2O)O[C@H]2CC(N)[C@@H](O[C@@H]3C(N)C[C@@H](N)C[C@H]3O)OC2C1O (stereo partly drawn) [Compound S1-n, 6-deoxy-4″-N-(3-aminopropyl)-5-epiapramycin]	4 µg/mL (≈ 6.89 µM)	2 µg/mL (≈ 3.44 µM)	8 µg/mL (≈ 13.8 µM)	4 µg/mL (≈ 6.89 µM)	4 µg/mL (≈ 6.89 µM)	4 µg/mL (≈ 6.89 µM)	4 µg/mL (≈ 6.89 µM)	8 µg/mL (≈ 13.8 µM)	4 µg/mL (≈ 6.89 µM)	2 µg/mL (≈ 3.44 µM)	1 µg/mL (≈ 1.72 µM)	8 µg/mL (≈ 13.8 µM)	1 µg/mL (≈ 1.72 µM)	1 µg/mL (≈ 1.72 µM)	–
CNC1C(O[C@H]2OC(CO)[C@@H](NC(=N)N)[C@H](O)C2O)O[C@H]2CC(N)[C@@H](O[C@@H]3C(N)C[C@@H](N)C[C@H]3O)OC2C1O (stereo partly drawn) [Compound S1-o, 4″-deamino-6-deoxy-5-epi-4″-guanidinoapramycin]	4 µg/mL (≈ 7.07 µM)	1 µg/mL (≈ 1.77 µM)	4 µg/mL (≈ 7.07 µM)	2 µg/mL (≈ 3.54 µM)	4 µg/mL (≈ 7.07 µM)	4 µg/mL (≈ 7.07 µM)	4 µg/mL (≈ 7.07 µM)	8 µg/mL (≈ 14.1 µM)	2 µg/mL (≈ 3.54 µM)	1 µg/mL (≈ 1.77 µM)	0.5 µg/mL (≈ 0.884 µM)	2 µg/mL (≈ 3.54 µM)	0.5 µg/mL (≈ 0.884 µM)	1 µg/mL (≈ 1.77 µM)	–
CNC1C(O[C@H]2OC(C)[C@@H](NC(CN)CN)[C@H](O)C2O)O[C@H]2CC(N)[C@@H](O[C@H]3CC(O)[C@H](N)CC3N)OC2C1O (stereo partly drawn) [Compound S1-p, 4″-N-(1,3-diaminopropan-2-yl)-5,6″-dideoxyapramycin]	4 µg/mL (≈ 6.9 µM)	1 µg/mL (≈ 1.73 µM)	4 µg/mL (≈ 6.9 µM)	4 µg/mL (≈ 6.9 µM)	4 µg/mL (≈ 6.9 µM)	8 µg/mL (≈ 13.8 µM)	8 µg/mL (≈ 13.8 µM)	4 µg/mL (≈ 6.9 µM)	2 µg/mL (≈ 3.45 µM)	1 µg/mL (≈ 1.73 µM)	1 µg/mL (≈ 1.73 µM)	2 µg/mL (≈ 3.45 µM)	1 µg/mL (≈ 1.73 µM)	1 µg/mL (≈ 1.73 µM)	–
